System: 922993-354-T-J3-PDC complex spheroids, viability
Experiment: Anticancer human tumor 922993-354-T-J3-PDC patient-derived endometrial carcinoma cell line growth inhibition [GQUAD]
Conditions: for IC50: curve of first compound; for viability, T/C: stronger effect = lower value; active means viability on the fitted dose curve at most 10% of control; inactive means the rest
Outline: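 Multi-cell-type spheroids of tumor cells with HUVEC and mesenchymal stem cells, treated with drug combinations. Concentrations descend in half-log steps from near clinical Cmax, or from 10 microM where Cmax is unknown; viability read-out.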
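Further: spheroids exposed to compounds for seven days.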
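Wherever viability, T/C is given: 100% = DMSO vehicle control viability.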

COc1cccc2c1C(=O)c1c(O)c3c(c(O)c1C2=O)CC(O)(C(=O)CO)CC3OC1CC(N)C(O)C(C)O1 (configuration not stated) + Cc1[nH]c2ccc(F)cc2c1-c1nc2c3cccnc3c3ncccc3c2[nH]1
> 10 µM: IC50 (second compound 0.1 µM) | IC50 (second compound 0.316 µM) | IC50 (second compound 1 µM) | IC50 (second compound 3.16 µM)
inactive: viability, T/C (second compound 0.0316 µM, first compound 0.0316 µM) 120% | viability, T/C (second compound 0.0316 µM, first compound 0.1 µM) 114% | viability, T/C (second compound 0.0316 µM, first compound 0.316 µM) 99.5% | viability, T/C (second compound 0.0316 µM, first compound 1 µM) 83.7% | viability, T/C (second compound 0.0316 µM, first compound 3.16 µM) 76.3% | viability, T/C (second compound 0.0316 µM, first compound 10 µM) 46.1% | viability, T/C (second compound 0.1 µM, first compound 0.0316 µM) 118% | viability, T/C (second compound 0.1 µM, first compound 0.1 µM) 96% | viability, T/C (second compound 0.1 µM, first compound 0.316 µM) 86.7% | viability, T/C (second compound 0.1 µM, first compound 1 µM) 66.3% | viability, T/C (second compound 0.1 µM, first compound 3.16 µM) 105% | viability, T/C (second compound 0.1 µM, first compound 10 µM) 56.1% | viability, T/C (second compound 0.316 µM, first compound 0.0316 µM) 96.5% | viability, T/C (second compound 0.316 µM, first compound 0.1 µM) 105% | viability, T/C (second compound 0.316 µM, first compound 0.316 µM) 92.6% | viability, T/C (second compound 0.316 µM, first compound 1 µM) 94.1% | viability, T/C (second compound 0.316 µM, first compound 3.16 µM) 73.2% | viability, T/C (second compound 0.316 µM, first compound 10 µM) 56.1% | viability, T/C (second compound 1 µM, first compound 0.0316 µM) 122% | viability, T/C (second compound 1 µM, first compound 0.1 µM) 91.4% | viability, T/C (second compound 1 µM, first compound 0.316 µM) 72.3% | viability, T/C (second compound 1 µM, first compound 1 µM) 80.1% | viability, T/C (second compound 1 µM, first compound 3.16 µM) 81.3% | viability, T/C (second compound 1 µM, first compound 10 µM) 53.8% | viability, T/C (second compound 3.16 µM, first compound 0.0316 µM) 120% | viability, T/C (second compound 3.16 µM, first compound 0.1 µM) 73.8% | viability, T/C (second compound 3.16 µM, first compound 0.316 µM) 71.4% | viability, T/C (second compound 3.16 µM, first compound 1 µM) 88.7% | viability, T/C (second compound 3.16 µM, first compound 3.16 µM) 74.6% | viability, T/C (second compound 3.16 µM, first compound 10 µM) 46.9% | viability, T/C (second compound 10 µM, first compound 0.0316 µM) 97.2% | viability, T/C (second compound 10 µM, first compound 0.1 µM) 81.8% | viability, T/C (second compound 10 µM, first compound 0.316 µM) 89% | viability, T/C (second compound 10 µM, first compound 1 µM) 98.4% | viability, T/C (second compound 10 µM, first compound 3.16 µM) 103% | viability, T/C (second compound 10 µM, first compound 10 µM) 47.1%
9.33 µM: IC50 (second compound 10 µM)
9.8 µM: IC50 (second compound 0.0316 µM)

Source: PubChem BioAssay AID2060489 (Molecular Pharmacology Branch, DTP, NCI, 2025)
